# Reference: patent US9447083B2, “N-acylhydrazone derivatives for selective T cell inhibitor and anti-lymphoid malignancy drug” (CHONG KUN DANG PHARMACEUTICAL CORP., priority 2012, dated 2016)
# Tested on: Jurkat T cells
# Experiment: Pro-apoptotic activity on Jurkat T cells (FITC-Annexin V / 7-AAD flow cytometry)
# Format: cell-based
# Conditions: Homo sapiens, 72 hours, cells stained with FITC-Annexin V and 7-AAD among total cells, read-out: Jurkat T Cell Apoptosis (% in 5 μM)
# Method: In order to investigate the effects of the prepared compounds, the apoptosis-inducing effects of the compounds on human T cell acute lymphoblastic leukemia cell line, Jurkat T cells, were evaluated in the following manner.
# Jurkat T cells cultured in RPMI medium containing 10% fetal bovine serum (FBS) were collected and stained with trypan blue (Sigma). […] Then, the cells were centrifuged at 1200 rpm at room temperature for 5 minutes and re-suspended in 10% FBS-containing RPMI medium at a concentration of 1.5×10^5 cells/mL. 200 μL of the cell suspension was dispensed into each well of a flat bottom 96-well plate (Costar). Then, the cells were treated with 10 μL of the diluted compounds in RPMI medium at final concentrations of […] or 5 μM, and incubated in a 5% CO2 incubator at 37° C. for 72 hours. In a vehicle control group, the cells were treated with 10 μL of RPMI medium containing 1% of dimetylsulfoxide (DMSO, Sigma). The incubated cells were harvested, put into 5-mL FACS tubes (BD Falcon), washed with 1 mL of phosphate buffered saline (PBS), and then re-suspended in 0.1 mL of binding buffer (10 mM Hepes-NaOH, pH 7.4, 140 mM NaCl, […] CaCl2). The suspended cells were stained with fluorescein isothiocyanate (FITC)-Annexin V (BD Biosciences) and 7-amino-actinomycin D (7-AAD, e-Biosciences) at room temperature for 15 minutes. The stained cells were suspended in 0.3 mL of binding buffer and analyzed by a flow cytometer. Apoptosis was determined by the ratio (%) of cells stained with FITC-Annexin V and 7-AAD among the total cells (see Tables 10 and 11).
row,SMILES,cytotoxicity at 5 µM
1,"O=C(COc1cccnc1-c1ccoc1)N/N=C/c1ccc2cc[nH]c2c1 [Compound 310, (E)-N′-((1H-indol-6-yl)methylene)-2-(2-(furan-3-yl)pyridin-3-yloxy)acetohydrazide]",100%
2,"Cc1cccc(C2CCOC2)c1OCC(=O)N/N=C/c1ccc2cc[nH]c2c1 (centres unmarked) [Compound 311, (E)-N′-((1H-indol-6-yl)methylene)-2-(2-methyl-6-(tetrahydrofuran-3-yl)phenoxy)acetohydrazide]",100%
3,"Cc1cccc(C2CCOC2)c1OCC(=O)N/N=C/c1cccc2[nH]ccc12 (centres unmarked) [Compound 312, (E)-N′-((1H-indol-4-yl)methylene)-2-(2-methyl-6-(tetrahydrofuran-3-yl)phenoxy)acetohydrazide]",100%
4,"Cc1cccc(-c2ccoc2)c1OCC(=O)N/N=C/c1ccc2cc[nH]c2c1 [Compound 313, (E)-N′-((1H-indol-6-yl)methylene)-2-(2-(furan-3-yl)-6-methylphenoxy)acetohydrazide]",100%
5,"Cc1cccc(-c2ccoc2)c1OCC(=O)N/N=C/c1cccc2[nH]ccc12 [Compound 314, (E)-N′-((1H-indol-4-yl)methylene)-2-(2-(furan-3-yl)-6-methylphenoxy)acetohydrazide]",100%
6,"Cc1cc(C)c(OCC(=O)N/N=C/c2cccc3[nH]ccc23)c(-c2ccco2)c1 [Compound 317, (E)-N′-((1H-indol-4-yl)methylene)-2-(2-(furan-2-yl)-4,6-dimethylphenoxy)acetohydrazide]",100%
7,Cc1cc(C)c(OCC(=O)N/N=C/c2ccc3cc[nH]c3c2)c(-c2ccco2)c1 [Compound 318],100%
8,"O=C(COc1cccnc1-c1ccoc1)N/N=C/c1cccc2[nH]ccc12 [Compound 319, (E)-N′-((1H-indol-4-yl)methylene)-2-((2-(furan-3-yl)pyridin-3-yl)oxy)acetohydrazide]",100%
9,"Cc1cc(C)c(OCC(=O)N/N=C/c2cccc3[nH]ccc23)c(C2CCOC2)c1 (centres unmarked) [Compound 320, (E)-N′-((1H-indol-4-yl)methylene)-2-(2,4-dimethyl-6-(tetrahydrofuran-3-yl)phenoxy)acetohydrazide]",100%
10,"Cc1cc(-c2ccoc2)cc(C)c1OCC(=O)N/N=C/c1ccc2cc[nH]c2c1 [Compound 322, (E)-N′-((1H-indol-6-yl)methylene)-2-(4-(furan-3-yl)-2,6-dimethylphenoxy)acetohydrazide]",100%
11,"Cc1cc(C2CCOC2)cc(C)c1OCC(=O)N/N=C/c1ccc2cc[nH]c2c1 (centres unmarked) [Compound 323, (E)-N′-((1H-indol-6-yl)methylene)-2-(2,6-dimethyl-4-(tetrahydrofuran-3-yl)phenoxy)acetohydrazide]",100%
12,"Cc1cccc(OCC(=O)N/N=C/c2cccc3[nH]ccc23)c1C [Compound 326, (E)-N′-((1H-indol-4-yl)methylene)-2-(2,3-dimethylphenoxy)acetohydrazide]",95%
13,Cc1cccc(OCC(=O)N/N=C/c2ccc3cc[nH]c3c2)c1C [Compound 327],95%
14,"CCc1nc(C)ccc1OCC(=O)N/N=C/c1cccc2[nH]ccc12 [Compound 329, (E)-N′-((1H-indol-4-yl)methylene)-2-((2-ethyl-6-methylpyridin-3-yl)oxy)acetohydrazide]",100%
15,"N#Cc1cc(Br)ccc1OCC(=O)N/N=C/c1cccc2[nH]ccc12 [Compound 330, (E)-N′-((1H-indol-4-yl)methylene)-2-(4-bromo-2-cyanophenoxy)acetohydrazide]",80%
16,"O=C(COc1cccnc1N1CCCC1)N/N=C/c1ccc2cc[nH]c2c1 [Compound 331, (E)-N′-((1H-indol-6-yl)methylene)-2-((2-(pyrrolidin-1-yl)pyridin-3-yl)oxy)acetohydrazide]",100%

row,SMILES,cytotoxicity at 5 µM
1,"Cc1cc(C)c(OCC(=O)N/N=C/c2ccc3cc[nH]c3c2)c(C2CCCO2)c1 (centres unmarked) [Compound 332, (E)-N′-((1H-indol-6-yl)methylene)-2-(2,4-dimethyl-6-(tetrahydrofuran-2-yl)phenoxy)acetohydrazide]",100%
2,"Cc1cc(C)c(OCC(=O)N/N=C/c2cccc3[nH]ccc23)c(-c2ccoc2)c1 [Compound 333, (E)-N′-((1H-indol-4-yl)methylene)-2-(2-(furan-3-yl)-4,6-dimethylphenoxy)acetohydrazide]",100%
3,"Cc1cc(-c2ccoc2)cc(C)c1OCC(=O)N/N=C/c1cccc2[nH]ccc12 [Compound 336, (E)-N′-((1H-indol-4-yl)methylene)-2-(4-(furan-3-yl)-2,6-dimethylphenoxy)acetohydrazide]",100%
4,"Cc1cc(C2CCOC2)cc(C)c1OCC(=O)N/N=C/c1cccc2[nH]ccc12 (centres unmarked) [Compound 337, (E)-N′-((1H-indol-4-yl)methylene)-2-(2,6-dimethyl-4-(tetrahydrofuran-3-yl)phenoxy)acetohydrazide]",100%
5,"O=C(COc1cccnc1-c1ccsc1)N/N=C/c1ccc2cc[nH]c2c1 [Compound 343, (E)-N′-((1H-indol-6-yl)methylene)-2-((2-(thiophen-3-yl)pyridin-3-yl)oxy)acetohydrazide]",100%
6,"Cc1cc(C)c(OCC(=O)N/N=C/c2cccc3[nH]ccc23)c(-c2cccs2)c1 [Compound 344, (E)-N′-((1H-indol-4-yl)methylene)-2-(2,4-dimethyl-6-(thiophen-2-yl)phenoxy)acetohydrazide]",100%
7,Cc1cc(C)c(OCC(=O)N/N=C/c2ccc3cc[nH]c3c2)c(-c2cccs2)c1 [Compound 345],95%
8,"COc1ccc(OCC(=O)N/N=C/c2cccc3[nH]ccc23)c(-c2ccco2)c1 [Compound 346, (E)-N′-((1H-indol-4-yl)methylene)-2-(2-(furan-2-yl)-4-methoxyphenoxy)acetohydrazide]",100%
9,COc1ccc(OCC(=O)N/N=C/c2ccc3cc[nH]c3c2)c(-c2ccco2)c1 [Compound 347],100%
10,"O=C(COc1cccc(-c2ccco2)c1)N/N=C/c1cccc2[nH]ccc12 [Compound 356, (E)-N′-((1H-indol-4-yl)methylene)-2-(3-(furan-2-yl)phenoxy)acetohydrazide]",90%
11,"O=C(COc1cccc(-c2cccnc2)c1)N/N=C/c1cccc2[nH]ccc12 [Compound 358, (E)-N′-((1H-indol-4-yl)methylene)-2-(3-(pyridin-3-yl)phenoxy)acetohydrazide]",100%
12,O=C(COc1cccc(-c2cccnc2)c1)N/N=C/c1ccc2cc[nH]c2c1 [Compound 359],80%
13,"Cc1cc(C)c(OCC(=O)N(C)/N=C/c2ccc3ccn(C)c3c2)c(C2CCOC2)c1 (centres unmarked) [Compound 375, (E)-2-(2,4-dimethyl-6-(tetrahydrofuran-3-yl)phenoxy)-N-methyl-N′-((1-methyl-1H-indol-6-yl)methylene)acetohydrazide]",100%
14,"Cc1cc(F)cc(C2CCOC2)c1OCC(=O)N/N=C/c1ccc2cc[nH]c2c1 (centres unmarked) [Compound 378, (E)-N′-((1H-indol-6-yl)methylene)-2-(4-fluoro-2-methyl-6-(tetrahydrofuran-3-yl)phenoxy)acetohydrazide]",100%
15,"Cc1cc(F)cc(C2CCOC2)c1OCC(=O)N/N=C/c1cccc2[nH]ccc12 (centres unmarked) [Compound 379, (E)-N′-((1H-indol-4-yl)methylene)-2-(4-fluoro-2-methyl-6-(tetrahydrofuran-3-yl)phenoxy)acetohydrazide]",100%
16,"Cc1cc(F)cc(C2CCOC2)c1OCC(=O)N(C)/N=C/c1ccc2ccn(C)c2c1 (centres unmarked) [Compound 380, (E)-2-(4-fluoro-2-methyl-6-(tetrahydrofuran-3-yl)phenoxy)-N-methyl-N′-((1-methyl-1H-indol-6-yl)methylene)acetohydrazide]",100%
